{"source": "patent US11976064B2", "about": "“Toll-like receptor agonists” (Pfizer Inc., priority 2019, dated 2024)", "note": "pEC50: −log10 of the molar value."}
{"molecular_target": "T1, human toll like receptor 8 (hTLR8) (Homo sapiens, UniProt Q9NR97)", "T1 construct": "host or cells: HEK293 (HEK-Blue hTLR8)", "T1 sequence (Q9NR97 27-1041)": "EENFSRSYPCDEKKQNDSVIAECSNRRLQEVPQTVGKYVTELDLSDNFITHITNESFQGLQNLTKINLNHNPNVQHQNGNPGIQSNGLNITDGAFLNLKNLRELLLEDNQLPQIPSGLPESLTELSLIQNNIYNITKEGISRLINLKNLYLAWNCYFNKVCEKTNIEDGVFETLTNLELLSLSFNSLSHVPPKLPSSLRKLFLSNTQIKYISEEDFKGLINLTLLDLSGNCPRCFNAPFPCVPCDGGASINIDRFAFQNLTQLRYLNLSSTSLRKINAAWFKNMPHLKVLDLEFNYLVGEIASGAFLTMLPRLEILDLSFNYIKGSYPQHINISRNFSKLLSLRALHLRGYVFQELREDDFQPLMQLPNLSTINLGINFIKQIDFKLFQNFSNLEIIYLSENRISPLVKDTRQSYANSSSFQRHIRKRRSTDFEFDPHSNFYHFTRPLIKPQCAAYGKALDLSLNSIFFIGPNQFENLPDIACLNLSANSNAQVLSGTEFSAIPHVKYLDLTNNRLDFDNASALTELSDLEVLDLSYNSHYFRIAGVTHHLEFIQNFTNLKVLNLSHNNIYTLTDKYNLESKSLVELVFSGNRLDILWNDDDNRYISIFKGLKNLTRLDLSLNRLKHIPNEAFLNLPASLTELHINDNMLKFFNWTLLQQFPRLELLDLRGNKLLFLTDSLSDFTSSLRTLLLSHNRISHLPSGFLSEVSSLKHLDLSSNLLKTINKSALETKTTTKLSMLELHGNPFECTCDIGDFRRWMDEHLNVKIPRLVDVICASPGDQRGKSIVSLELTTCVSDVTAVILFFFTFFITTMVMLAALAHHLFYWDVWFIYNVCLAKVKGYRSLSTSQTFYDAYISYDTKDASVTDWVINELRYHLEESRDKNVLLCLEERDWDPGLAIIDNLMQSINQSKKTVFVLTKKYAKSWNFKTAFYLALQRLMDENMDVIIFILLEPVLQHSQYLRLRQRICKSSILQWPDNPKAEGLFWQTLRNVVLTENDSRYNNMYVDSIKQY", "assay": "hTLR8 cell functional assay (HEK-Blue hTLR8 SEAP reporter)", "format": "cell-based", "conditions": "HEK293 cells stably overexpressing hTLR8, SEAP reporter; geometric mean when tested more than once", "method": "The Examples described were tested for biological activity in functional cellular assays using HEK293 cells stably overexpressing human TLR7 or TLR8. The assays tested for the ability of each Example to stimulate secretion of interferon alpha (IFNα) in human primary blood mono nuclear cells (PBMC).\nTo determine the ability of each Example to activate the human toll like receptor 7 (hTLR7) or human toll like receptor 8 (hTLR8), cell-based reporter systems were utilized. HEK293 cells stably overexpressing either hTLR7 or hTLR8 along with a reporter gene containing an optimized secreted embryonic alkaline phosphatase gene (SEAP), under the control of the IFN-b minimal promoter fused to five NF-κB and AP-1-binding sites, were obtained from Invivogen (HEK-Blue™ hTLR7, cat #Hkb-ht1r7; HEK-Blue™ hTLR8, cat #Hkb-ht1r8). Stimulation of hTLR7 or hTLR8 in these cells activates NF-κB and AP-1 and induces the production of SEAP which can be quantified using an alkaline phosphatase detection reagent.\nCells were maintained in Dulbecco's Modified Eagle Media (DMEM) (containing Fetal Bovine Serum (FBS) heat inactivated (10%), Glutamax (2 mM), Penicillin/Streptomycin, Blasticidin (10 μg/ml), Zeocin (100 μg/ml) and Normocin (100 μg/ml)). On day one of the assay, Examples were prepared using 11-point half-log serial dilutions from a 10mM DMSO stock solution and 50 nl was spotted into 384-well Viewplates (PerkinElmer, cat #6007480). Positive control TLR7/8 agonist and negative control (DMSO, no Example) were also spotted within the assay plate and were used to determine percent effect during the analysis process. After resuspension in DMEM assay media containing FBS heat inactivated (10%), Glutamax (2 mM) and Penicillin/Streptomycin, 10,000 cells/20 μl/well were added to previously prepared plates. Plates were incubated overnight (16-20 hrs) at 37° C. in a 5% CO2 environment. Prewetted Microclime lids (Labcyte, LLS-0310) were used to prevent evaporation. On day two of the assay, QUANTI-Blue™ detection reagent was prepared by reconstituting QUANTI-Blue™ powder (InvivoGen, Rep-qb1) with 100 ml of sterile water and allowed to equilibrate to 37° C. for 15 minutes. 20 μl of QUANTI-Blue™ detection reagent was added to each well and plates were incubated at room temperature for 180 min. At the end of the incubation, plates were read on an Envision (Perkin Elmer) plate reader capturing absorbance at 650 nm.\nUsing Positive (TLR7/8 agonist) and Negative (DMSO) controls, the percent (%) effect was calculated for each Example using the following equation: effect=100−[100*{(Example−Positive Control)/(Negative Control−Positive Control)}]\nThe % effect at each concentration of each Example was calculated utilizing the ABase software suite (IBDS) and was relative to the amount of SEAP produced in the positive and negative control wells contained within each assay plate. The concentrations and % effect values for each Example were fit using a 4-parameter logistic model in ABase and the concentration of each Example that produced 50% response (EC50) was calculated."}
{"smiles": "CCOCc1nc2c(N)nc3ccccc3c2n1CC(C)(CO)CO", "note": "[Example 3, 2-((4-amino-2-(ethoxymethyl)-1H-imidazo[4,5-c]quinolin-1-yl)methyl)-2-methylpropane-1,3-diol]", "pEC50": 6.71}
{"smiles": "CCCCc1nc2c(N)nc3c(c2n1CC(C)(CO)CO)CCCC3", "note": "[Example 13, 2-((4-amino-2-butyl-6,7,8,9-tetrahydro-1H-imidazo[4,5-c]quinolin-1-yl)methyl)-2-methylpropane-1,3-diol]", "pEC50": 6.98}
{"smiles": "CCOCc1nc2c(N)nc(C)c(C)c2n1CC(CC)(CO)CO", "note": "[Example 9, 2-((4-amino-2-(ethoxymethyl)-6,7-dimethyl-1H-imidazo[4,5-c]pyridin-1-yl)methyl)-2-ethylpropane-1,3-diol]", "pEC50": 5.84}
{"smiles": "CCCCc1nc2c(N)nc3ccccc3c2n1CC(C)(CO)CO", "note": "[Example 10, 2-((4-amino-2-butyl-1H-imidazo[4,5-c]quinolin-1-yl)methyl)-2-methylpropane-1,3-diol]", "pEC50": 7.04}
{"smiles": "CCOCc1nc2c(N)nc(C)c(C)c2n1CC(C)(CO)COC", "note": "(single isomer, unassigned) [Example 6, 3-(4-amino-2-(ethoxymethyl)-6,7-dimethyl-1H-imidazo[4,5-c]pyridin-1-yl)-2-(methoxymethyl)-2-methylpropan-1-ol]", "pEC50": 5.19}
{"smiles": "CCOCc1nc2c(N)nc(C)c(C)c2n1CC(C)(CO)CO", "note": "[Example 2, 2-((4-amino-2-(ethoxymethyl)-6,7-dimethyl-1H-imidazo[4,5-c]pyridin-1-yl)methyl)-2-methylpropane-1,3-diol]", "pEC50": 6.09}
{"smiles": "Cc1nc(N)c2nc(CC(F)(F)F)n(CC(C)(CO)CO)c2c1C", "note": "[Example 8, 2-((4-amino-6,7-dimethyl-2-(2,2,2-trifluoroethyl)-1H-imidazo[4,5-c]pyridin-1-yl)methyl)-2-methylpropane-1,3-diol]", "pEC50": 5.10}
{"smiles": "CCc1nc2c(N)nc3ccccc3c2n1CC(C)(CO)CO", "note": "[Example 15, 2-((4-amino-2-ethyl-1H-imidazo[4,5-c]quinolin-1-yl)methyl)-2-methylpropane-1,3-diol]", "pEC50": 6.21}
{"smiles": "CCCc1nc2c(N)nc3ccccc3c2n1CC(C)(CO)CO", "note": "[Example 16, 2-((4-amino-2-propyl-1H-imidazo[4,5-c]quinolin-1-yl)methyl)-2-methylpropane-1,3-diol]", "pEC50": 6.49}
{"smiles": "CCOCc1nc2c(N)nc(C)c(C)c2n1CC(CO)CO", "note": "[Example 1, 2-((4-amino-2-(ethoxymethyl)-6,7-dimethyl-1H-imidazo[4,5-c]pyridin-1-yl)methyl)propane-1,3-diol]", "pEC50": 5.59}
{"smiles": "CCOCc1nc2c(N)nc(C)c(C)c2n1CC(C)(CO)COC", "note": "(single isomer, unassigned) [Example 7, 3-(4-amino-2-(ethoxymethyl)-6,7-dimethyl-1H-imidazo[4,5-c]pyridin-1-yl)-2-(methoxymethyl)-2-methylpropan-1-ol]", "pEC50": 4.78}
{"smiles": "CCCCc1nc2c(N)nc3c(c2n1CC(C)(CO)CO)CCC3", "note": "[Example 14, 2-((4-amino-2-butyl-7,8-dihydrocyclopenta[b]imidazo[4,5-d]pyridin-1(6H)-yl)methyl)-2-methylpropane-1,3-diol]", "pEC50": 6.61}
